Results on 13 compounds are retold here after ChEMBL document CHEMBL3991601, “The target landscape of clinical kinase drugs” (Science, 2017).

For test [1], the target named is Tyrosine-protein kinase Lck (Homo sapiens, UniProt P06239).
The target of test [2] is T1, ATP-dependent 6-phosphofructokinase, platelet type (Homo sapiens, UniProt Q01813).
T1 sequence (Q01813 whole entry): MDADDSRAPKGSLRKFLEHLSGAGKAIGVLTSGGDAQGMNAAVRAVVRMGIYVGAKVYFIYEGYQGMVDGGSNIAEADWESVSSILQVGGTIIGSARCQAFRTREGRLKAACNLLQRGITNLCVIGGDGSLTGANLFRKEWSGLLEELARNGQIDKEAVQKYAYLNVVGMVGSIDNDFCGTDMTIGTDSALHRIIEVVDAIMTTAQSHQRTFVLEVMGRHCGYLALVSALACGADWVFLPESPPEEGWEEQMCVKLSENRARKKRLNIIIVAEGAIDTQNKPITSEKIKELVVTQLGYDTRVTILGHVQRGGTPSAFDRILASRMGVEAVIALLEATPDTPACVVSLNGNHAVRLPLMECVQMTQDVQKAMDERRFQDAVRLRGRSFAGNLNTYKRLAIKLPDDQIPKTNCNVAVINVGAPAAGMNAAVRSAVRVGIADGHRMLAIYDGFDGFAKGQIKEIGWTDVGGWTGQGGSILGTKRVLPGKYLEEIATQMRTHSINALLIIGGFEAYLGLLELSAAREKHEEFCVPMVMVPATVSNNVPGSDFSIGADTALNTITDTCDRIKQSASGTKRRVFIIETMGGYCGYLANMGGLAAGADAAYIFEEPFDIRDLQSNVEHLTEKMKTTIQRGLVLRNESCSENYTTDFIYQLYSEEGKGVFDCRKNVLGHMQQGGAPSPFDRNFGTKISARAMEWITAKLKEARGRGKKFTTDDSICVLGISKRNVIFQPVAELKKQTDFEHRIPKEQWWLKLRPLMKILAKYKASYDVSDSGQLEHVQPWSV

Test [3] has as its target T2, Cyclin-G-associated kinase (Homo sapiens, UniProt O14976).
T2 sequence (O14976 whole entry): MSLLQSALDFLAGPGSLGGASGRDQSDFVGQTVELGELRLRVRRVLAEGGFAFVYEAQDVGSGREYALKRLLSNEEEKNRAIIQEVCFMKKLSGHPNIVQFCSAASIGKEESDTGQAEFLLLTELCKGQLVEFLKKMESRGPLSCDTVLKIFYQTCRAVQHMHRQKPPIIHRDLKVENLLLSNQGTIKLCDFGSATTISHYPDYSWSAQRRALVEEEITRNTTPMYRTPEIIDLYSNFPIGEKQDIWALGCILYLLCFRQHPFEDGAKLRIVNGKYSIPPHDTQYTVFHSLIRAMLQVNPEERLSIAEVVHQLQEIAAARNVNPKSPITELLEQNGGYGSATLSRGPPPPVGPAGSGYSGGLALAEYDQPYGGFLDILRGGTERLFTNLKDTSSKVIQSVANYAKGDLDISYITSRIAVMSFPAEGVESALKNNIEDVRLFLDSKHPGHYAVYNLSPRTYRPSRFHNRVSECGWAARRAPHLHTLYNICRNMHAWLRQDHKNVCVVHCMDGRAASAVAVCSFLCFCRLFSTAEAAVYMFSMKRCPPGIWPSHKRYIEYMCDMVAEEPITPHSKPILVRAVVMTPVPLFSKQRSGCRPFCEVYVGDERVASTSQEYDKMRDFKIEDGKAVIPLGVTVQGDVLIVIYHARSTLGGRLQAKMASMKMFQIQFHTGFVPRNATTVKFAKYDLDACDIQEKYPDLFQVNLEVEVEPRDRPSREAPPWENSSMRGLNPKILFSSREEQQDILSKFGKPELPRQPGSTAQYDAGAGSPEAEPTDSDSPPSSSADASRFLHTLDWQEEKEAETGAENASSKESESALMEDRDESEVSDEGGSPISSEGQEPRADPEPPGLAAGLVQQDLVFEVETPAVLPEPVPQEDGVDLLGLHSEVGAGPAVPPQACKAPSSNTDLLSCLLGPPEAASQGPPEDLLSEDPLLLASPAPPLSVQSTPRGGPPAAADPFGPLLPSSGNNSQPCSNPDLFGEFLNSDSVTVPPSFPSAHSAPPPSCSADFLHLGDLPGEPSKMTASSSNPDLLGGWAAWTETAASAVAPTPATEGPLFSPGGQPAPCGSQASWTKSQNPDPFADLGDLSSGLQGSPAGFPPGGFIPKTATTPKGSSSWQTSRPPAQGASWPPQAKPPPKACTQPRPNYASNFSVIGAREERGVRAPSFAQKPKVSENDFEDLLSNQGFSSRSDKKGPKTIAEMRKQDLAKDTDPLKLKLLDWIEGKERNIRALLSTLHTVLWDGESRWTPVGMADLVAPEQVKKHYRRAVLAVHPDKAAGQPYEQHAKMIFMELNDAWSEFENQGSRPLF

Test [4] addresses Serine/threonine-protein kinase 10 (Homo sapiens, UniProt O94804).
Test [5] deals with Cyclin-dependent kinase 5 (Homo sapiens, UniProt Q00535).
In test [6] the target is Dual specificity protein kinase CLK2 (Homo sapiens, UniProt P49760).
The target in test [7] is T3, cGMP-dependent protein kinase 1 (Homo sapiens, UniProt Q13976).
T3 sequence (Q13976 whole entry): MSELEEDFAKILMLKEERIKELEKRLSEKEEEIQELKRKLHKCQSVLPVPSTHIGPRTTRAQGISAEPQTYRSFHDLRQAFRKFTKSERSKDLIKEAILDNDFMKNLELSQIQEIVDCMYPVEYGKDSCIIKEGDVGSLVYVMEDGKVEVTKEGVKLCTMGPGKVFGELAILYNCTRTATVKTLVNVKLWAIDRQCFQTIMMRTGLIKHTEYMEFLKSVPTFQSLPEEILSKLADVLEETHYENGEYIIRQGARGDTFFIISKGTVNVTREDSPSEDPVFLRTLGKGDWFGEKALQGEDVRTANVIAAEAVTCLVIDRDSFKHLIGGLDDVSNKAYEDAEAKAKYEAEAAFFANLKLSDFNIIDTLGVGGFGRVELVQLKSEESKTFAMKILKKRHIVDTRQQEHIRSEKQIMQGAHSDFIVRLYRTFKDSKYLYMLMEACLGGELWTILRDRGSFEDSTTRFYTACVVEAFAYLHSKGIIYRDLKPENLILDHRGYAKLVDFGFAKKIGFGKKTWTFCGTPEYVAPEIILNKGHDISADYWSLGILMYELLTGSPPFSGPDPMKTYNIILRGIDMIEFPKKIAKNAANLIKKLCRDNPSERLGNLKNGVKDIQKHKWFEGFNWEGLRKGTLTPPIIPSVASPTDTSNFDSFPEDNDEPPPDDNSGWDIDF

For test [8], the target named is Membrane-associated progesterone receptor component 1 (Homo sapiens, UniProt O00264).

Active and inactive are the calls of the source. For most assays here, no stated cut-off is given here; in the data, actives have a measured Kd and inactives only a lower limit. A value given as a limit tells only on which side of the number the result lay.

Tyrosine-protein kinase Lck, sequence (P06239 whole entry): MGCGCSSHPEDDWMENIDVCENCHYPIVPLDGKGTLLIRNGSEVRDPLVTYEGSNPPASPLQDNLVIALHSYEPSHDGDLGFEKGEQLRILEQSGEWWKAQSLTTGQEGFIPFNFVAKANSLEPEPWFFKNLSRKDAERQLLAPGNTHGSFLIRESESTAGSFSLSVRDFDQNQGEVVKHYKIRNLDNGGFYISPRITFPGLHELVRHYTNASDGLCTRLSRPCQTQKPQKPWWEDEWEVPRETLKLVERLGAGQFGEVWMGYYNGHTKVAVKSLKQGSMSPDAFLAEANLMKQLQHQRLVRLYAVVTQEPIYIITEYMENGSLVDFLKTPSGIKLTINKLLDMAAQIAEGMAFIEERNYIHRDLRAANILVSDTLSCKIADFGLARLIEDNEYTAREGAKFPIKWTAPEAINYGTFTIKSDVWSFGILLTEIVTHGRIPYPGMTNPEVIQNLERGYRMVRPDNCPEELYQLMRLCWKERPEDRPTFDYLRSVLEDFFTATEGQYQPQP
Dual specificity protein kinase CLK2, sequence (P49760 whole entry): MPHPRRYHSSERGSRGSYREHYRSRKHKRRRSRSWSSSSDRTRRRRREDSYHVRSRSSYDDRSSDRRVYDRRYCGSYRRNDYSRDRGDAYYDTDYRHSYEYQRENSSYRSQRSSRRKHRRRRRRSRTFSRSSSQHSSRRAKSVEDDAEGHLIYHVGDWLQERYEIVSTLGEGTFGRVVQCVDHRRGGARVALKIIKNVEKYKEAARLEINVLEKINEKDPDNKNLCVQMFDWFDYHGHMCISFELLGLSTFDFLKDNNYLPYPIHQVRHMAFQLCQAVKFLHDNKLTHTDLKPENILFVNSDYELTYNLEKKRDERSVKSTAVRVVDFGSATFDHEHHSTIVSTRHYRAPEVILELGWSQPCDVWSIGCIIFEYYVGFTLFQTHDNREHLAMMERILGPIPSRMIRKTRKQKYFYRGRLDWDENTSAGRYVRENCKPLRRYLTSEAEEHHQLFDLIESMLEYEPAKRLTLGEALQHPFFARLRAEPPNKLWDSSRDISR
Membrane-associated progesterone receptor component 1, sequence (O00264 whole entry): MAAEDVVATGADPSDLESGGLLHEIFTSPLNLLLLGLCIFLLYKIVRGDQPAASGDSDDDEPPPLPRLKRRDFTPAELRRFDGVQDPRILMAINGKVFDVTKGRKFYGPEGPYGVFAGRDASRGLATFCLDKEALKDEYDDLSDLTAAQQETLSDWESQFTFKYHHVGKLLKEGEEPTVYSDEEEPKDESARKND
Serine/threonine-protein kinase 10, sequence (O94804 whole entry): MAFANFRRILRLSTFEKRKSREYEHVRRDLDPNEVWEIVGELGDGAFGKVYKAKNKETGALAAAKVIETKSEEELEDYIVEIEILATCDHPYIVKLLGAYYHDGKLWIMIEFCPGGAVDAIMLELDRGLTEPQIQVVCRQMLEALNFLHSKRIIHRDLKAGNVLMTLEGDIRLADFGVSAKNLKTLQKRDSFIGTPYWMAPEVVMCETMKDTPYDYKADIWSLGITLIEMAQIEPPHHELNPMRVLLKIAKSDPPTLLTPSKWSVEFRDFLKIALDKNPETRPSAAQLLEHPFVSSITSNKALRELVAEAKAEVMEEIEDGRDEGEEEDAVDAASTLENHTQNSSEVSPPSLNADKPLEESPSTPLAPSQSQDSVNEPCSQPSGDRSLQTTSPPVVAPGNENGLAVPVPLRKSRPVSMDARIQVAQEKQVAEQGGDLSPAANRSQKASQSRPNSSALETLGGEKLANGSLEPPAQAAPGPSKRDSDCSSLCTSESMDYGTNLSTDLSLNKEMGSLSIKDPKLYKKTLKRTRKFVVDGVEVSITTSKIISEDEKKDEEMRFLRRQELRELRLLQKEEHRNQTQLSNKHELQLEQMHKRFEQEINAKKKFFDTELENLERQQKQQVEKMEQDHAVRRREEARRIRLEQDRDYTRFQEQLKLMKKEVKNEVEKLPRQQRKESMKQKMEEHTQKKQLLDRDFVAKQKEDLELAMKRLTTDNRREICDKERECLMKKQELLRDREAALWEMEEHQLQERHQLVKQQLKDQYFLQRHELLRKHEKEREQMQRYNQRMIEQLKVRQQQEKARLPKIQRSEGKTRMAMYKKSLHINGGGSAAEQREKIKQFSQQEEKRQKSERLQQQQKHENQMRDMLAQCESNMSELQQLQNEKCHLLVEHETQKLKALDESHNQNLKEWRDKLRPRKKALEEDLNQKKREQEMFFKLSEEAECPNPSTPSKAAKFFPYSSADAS
Cyclin-dependent kinase 5, sequence (Q00535 whole entry): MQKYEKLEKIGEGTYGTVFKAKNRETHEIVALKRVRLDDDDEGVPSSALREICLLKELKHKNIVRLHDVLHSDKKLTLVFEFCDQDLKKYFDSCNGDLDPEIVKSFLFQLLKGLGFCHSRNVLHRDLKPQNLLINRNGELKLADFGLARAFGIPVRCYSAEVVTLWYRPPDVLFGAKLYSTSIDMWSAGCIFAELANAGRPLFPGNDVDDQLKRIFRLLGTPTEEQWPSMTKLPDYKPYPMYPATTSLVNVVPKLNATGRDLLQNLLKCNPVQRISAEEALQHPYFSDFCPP

By Kd is commonly meant the free concentration of one partner at which half of the binding sites on the other are occupied at equilibrium, for simple one-to-one binding. Take `CC(=O)c1cnc2ccc(-c3cc(Cl)c(O)c(Cl)c3)nc2c1N[C@H]1CC[C@H](CN(C)C)CC1`: the dissociation constant Kd in test [1] is 0.073 µM (active); in test [2] it was > 30 µM (inactive); in test [3] it was 0.005 µM (active); in test [4], 0.014 µM (active); in test [5] it was 0.253 µM (active); in test [6] it was > 30 µM (inactive). For the same compound, the Kd in test [7] is > 30 µM (inactive).
In the case of `Cc1cc(Nc2ncc(Cl)c(Nc3ccccc3S(=O)(=O)C(C)C)n2)c(OC(C)C)cc1C1CCNCC1` [CERITINIB], the Kd in test [1], in test [2], in test [3], in test [4], in test [5] and in test [6] was > 30 µM (inactive) in each case. Besides, the Kd in test [7] was > 30 µM (inactive).
On to `COc1c(OCCCN2CCOCC2)ccc2c1N=C(NC(=O)c1cnc(N)nc1)N1CCN=C21` [COPANLISIB], for which the Kd in test [1], in test [2], in test [3], in test [4], in test [5] and in test [6] was > 30 µM (inactive) in each case. Besides, the Kd in test [7] is > 30 µM (inactive).
For the compound `CCn1cc(-c2ccnc3[nH]c(-c4cccc(CN(C)C)c4)cc23)c(-c2ccc(NC(=O)N(C)C)cc2)n1` [GSK-1070916], the Kd in test [1], in test [2], in test [4], in test [5], in test [6] and in test [7] was > 30 µM (inactive) throughout.
As for `COc1ccc(S(=O)(=O)N(C(C)=O)c2ccccc2/C=C/c2cc[n+]([O-])cc2)cc1` [HMN-214], the Kd in test [1], in test [2], in test [3], in test [4], in test [5] and in test [6] was > 30 µM (inactive) each time. Also, the Kd in test [7] is > 30 µM (inactive).
Turning to `CN(C[C@@H]1COCCO1)S(=O)(=O)Nc1ccc2ccc3ncc(-c4cnn(C)c4)cc3c(=O)c2c1` [MK-2461], the Kd in test [1], in test [2], in test [3], in test [4], in test [8] and in test [5] was > 30 µM (inactive) each time. Further, the Kd in test [7] is > 30 µM (inactive).
`CCCCCCCCCCCCCCCCCCOP(=O)([O-])OC1CC[N+](C)(C)CC1` [PERIFOSINE]: the Kd in test [1], in test [2], in test [3], in test [4], in test [8] and in test [5] was > 30 µM (inactive) in each case. For the same compound, the Kd in test [7] was > 30 µM (inactive).
`N#CC1(c2ccc(NC(=O)c3cccnc3NCc3ccncc3)cc2)CCCC1` [RIVOCERANIB]: the Kd in test [1], in test [2], in test [3], in test [4], in test [5] and in test [6] was > 30 µM (inactive) each time. Besides, the Kd in test [7] was > 30 µM (inactive).
`CN1CCN(CCOc2cc(OC3CCOCC3)c3c(Nc4c(Cl)ccc5c4OCO5)ncnc3c2)CC1` [SARACATINIB]: the Kd in test [2] is > 30 µM (inactive); in test [4], 11.7 µM (active); in test [5] it was > 30 µM (inactive); in test [6] it was > 30 µM (inactive); in test [7], > 30 µM (inactive).
In the case of `CCS(=O)(=O)c1cccc(-c2cc(C(=O)NC3CCN(C)CC3)c(C)c3[nH]c4ncc(C)cc4c23)c1` [TAK-901], the Kd in test [1] was 0.105 µM (active); in test [2], > 30 µM (inactive); in test [3], > 30 µM (inactive); in test [4] it was 0.949 µM (active); in test [8], > 30 µM (inactive); in test [5] it was > 30 µM (inactive). Further, in test [7], the Kd was > 30 µM (inactive).
As to `COc1cc2c(Nc3ccc(Cl)c(Cl)c3F)ncnc2cc1OC[C@@H]1C[C@@H]2CN(C)C[C@@H]2C1` [TESEVATINIB], the Kd was 0.207 µM (active) in test [1]; > 30 µM (inactive) in test [2]; 0.615 µM (active) in test [3]; 1.91 µM (active) in test [4]; > 30 µM (inactive) in test [8]; > 30 µM (inactive) in test [5]. For the same compound, the Kd in test [7] was > 30 µM (inactive).
On to `Cc1cc(Nc2ncnc3ccc(NC4=NC(C)(C)CO4)cc23)ccc1Oc1ccn2ncnc2c1` [TUCATINIB], for which the Kd in test [1], in test [2], in test [3], in test [4], in test [8] and in test [5] was > 30 µM (inactive) each time. In test [7], the Kd is > 30 µM (inactive).
For `CN1C/C=C/CCOc2cccc(c2)-c2ccnc(n2)Nc2cccc(c2)C1` [ZOTIRACICLIB], the Kd is > 30 µM (inactive) in test [1]; > 30 µM (inactive) in test [2]; > 30 µM (inactive) in test [3]; 9.95 µM (active) in test [4]; > 30 µM (inactive) in test [8]; 0.93 µM (active) in test [5]. For the same compound, in test [7], the Kd was > 30 µM (inactive).
